Here are results for 2 compounds from ChEMBL document CHEMBL5030523, “Mechanisms of the Antiproliferative and Antitumor Activity of Novel Telomerase-Carbonic Anhydrase Dual-Hybrid Inhibitors” (J Med Chem, 2021).

Test [1] concerns COLO 205. As to the kind of experiment: Induction of cell senescence in human COLO 205 cells assessed by increase SA-beta-Gal activity measured after 44 to 56 days. The following applies: time 44-56 day. The test is classed as functional, cell-based.
The subject of test [2] is COLO 205. As to the kind of experiment: Cell cycle arrest in human COLO 205 cells assessed as accumulation at G0/G1 phase at 30 uM incubated for 56 days by propidium iodide staining based flow cytometry analysis (reference value: 72.81 %). It is filed as functional. The following applies: time 56 day.
Test [3] has as its system COLO 205. The experiment in a line: Effect on hTERT mRNA expression in human COLO 205 cells measured after 72 hrs by qRT-PCR analysis. It is filed as functional, cell-based.
The target of test [4] is T1, Telomerase reverse transcriptase (Homo sapiens, UniProt O14746). As to the kind of experiment: Inhibition of telomerase in human COLO 205 cells after 72 hrs by TRAP gel electrophoresis. It is filed as cell-based.
T1 sequence (O14746 whole entry): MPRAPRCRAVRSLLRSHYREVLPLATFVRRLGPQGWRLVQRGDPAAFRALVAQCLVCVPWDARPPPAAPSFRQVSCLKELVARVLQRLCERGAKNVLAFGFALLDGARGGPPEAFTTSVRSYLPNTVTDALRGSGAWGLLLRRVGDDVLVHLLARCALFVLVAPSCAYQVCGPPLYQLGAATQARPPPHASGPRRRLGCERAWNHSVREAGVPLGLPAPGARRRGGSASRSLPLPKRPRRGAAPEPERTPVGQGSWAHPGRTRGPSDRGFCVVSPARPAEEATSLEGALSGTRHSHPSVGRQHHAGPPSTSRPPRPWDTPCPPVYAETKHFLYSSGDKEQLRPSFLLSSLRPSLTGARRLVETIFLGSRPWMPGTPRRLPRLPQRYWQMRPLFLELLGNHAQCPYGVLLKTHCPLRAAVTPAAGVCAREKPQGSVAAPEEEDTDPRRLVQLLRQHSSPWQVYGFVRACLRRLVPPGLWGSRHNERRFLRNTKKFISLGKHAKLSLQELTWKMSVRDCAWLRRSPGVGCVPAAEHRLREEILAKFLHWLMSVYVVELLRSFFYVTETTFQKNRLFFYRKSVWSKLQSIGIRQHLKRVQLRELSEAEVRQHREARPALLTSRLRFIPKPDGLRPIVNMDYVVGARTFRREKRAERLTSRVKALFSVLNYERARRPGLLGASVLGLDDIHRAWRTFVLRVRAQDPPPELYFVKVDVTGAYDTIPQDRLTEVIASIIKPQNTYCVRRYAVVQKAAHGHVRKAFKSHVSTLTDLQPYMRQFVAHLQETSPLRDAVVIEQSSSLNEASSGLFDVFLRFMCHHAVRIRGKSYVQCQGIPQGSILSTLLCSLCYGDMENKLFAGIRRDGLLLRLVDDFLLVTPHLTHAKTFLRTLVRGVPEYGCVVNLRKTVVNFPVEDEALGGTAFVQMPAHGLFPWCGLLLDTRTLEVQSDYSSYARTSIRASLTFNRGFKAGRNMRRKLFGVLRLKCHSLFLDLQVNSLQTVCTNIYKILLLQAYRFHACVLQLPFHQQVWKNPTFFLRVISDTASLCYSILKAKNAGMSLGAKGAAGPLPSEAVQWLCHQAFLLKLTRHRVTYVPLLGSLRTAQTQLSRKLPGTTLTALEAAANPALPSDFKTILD
Test [5] has as its system COLO 205. The experiment in a line: Antitumor activity against human COLO 205 cells xenografted in BALB/c nude mouse assessed as change in tumor volume at 50 mg/kg, sc administered as single dose measured after 3 days (reference value: 449.3 +/- 86.2 mm3). As to conditions: time 3 day. It is filed as functional.
Test [6] concerns COLO 205. The experiment in a line: Induction of apoptosis in human COLO 205 cells assessed as necrotic cells incubated for 56 days by Annexin V/FITC and PI staining based flow cytometry analysis (reference value: 0.2 %). It is filed as functional. As to conditions: time 56 day.
Test [7] concerns COLO 205. As to the kind of experiment: Antitumor activity against human COLO 205 cells xenografted in BALB/c nude mouse assessed as change in tumor volume at 50 mg/kg, sc administered as single dose measured after 5 days (reference value: 270.1 +/- 52.1 mm3). The test is classed as functional. The following applies: time 5 day.
The subject of test [8] is COLO 205. The experiment in a line: Cell cycle arrest in human COLO 205 cells assessed as accumulation S phase incubated for 12 hrs by propidium iodide staining based flow cytometry analysis (reference value: 0.48 %). The test is classed as functional.
Test [9] deals with T1, Telomerase reverse transcriptase. The experiment in a line: Non-competitive inhibition of telomerase (unknown origin) assessed as decrease in Vmax at 1 uM by Michaelis-Menten analysis.
Test [10] has the same target. The experiment in a line: Inhibition of telomerase in human HCT-116 cells by TRAP assay. The test is classed as cell-based.
For test [11] the target is unchanged. As to the kind of experiment: Non-competitive inhibition of telomerase (unknown origin) assessed as decrease in Km at 1 uM using […] by Michaelis-Menten analysis relative to control. The following applies: COLO 205.
Test [12] concerns COLO 205. As to the kind of experiment: Induction of apoptosis in human COLO 205 cells assessed as early apoptotic cells incubated for 12 hrs by Annexin V/FITC and PI staining based flow cytometry analysis (reference value: 14.75 %). The test is classed as functional.
In a further test the target is Carbonic anhydrase 7 (Homo sapiens, UniProt P43166). As to the kind of experiment: Inhibition of human carbonic anhydrase 7 by stopped-flow CO2 hydration assay.
Carbonic anhydrase 7, sequence (P43166 whole entry): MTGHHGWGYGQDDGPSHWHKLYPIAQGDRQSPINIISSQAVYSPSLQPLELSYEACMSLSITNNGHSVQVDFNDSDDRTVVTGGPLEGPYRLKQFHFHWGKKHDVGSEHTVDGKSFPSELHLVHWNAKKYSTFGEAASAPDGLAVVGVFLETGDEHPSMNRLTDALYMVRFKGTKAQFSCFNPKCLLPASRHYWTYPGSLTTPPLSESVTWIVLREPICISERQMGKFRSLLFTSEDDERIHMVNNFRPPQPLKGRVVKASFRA
In test [13] the target is T1, Telomerase reverse transcriptase. The experiment in a line: Inhibition of telomerase in human COLO 205 cells assessed as shortening of telomere length at 30 uM by measured after 56 days qPCR relative to control. It is filed as cell-based. As to conditions: time 56.0 day.
Test [14] deals with COLO 205. As to the kind of experiment: Antitumor activity against human COLO 205 cells xenografted in BALB/c nude mouse assessed as tumor growth inhibition at 50 mg/kg, sc administered as single dose measured after 5 days relative to control. The test is classed as functional. The following applies: COLO 205, sc, 120 h, time 5 day, read-out: TGI.
The test system of test [15] is COLO 205. The experiment in a line: Induction of apoptosis in human COLO 205 cells assessed as late apoptotic cells incubated for 12 hrs by Annexin V/FITC and PI staining based flow cytometry analysis (reference value: 13.48 %). It is filed as functional.
The test system of test [16] is COLO 205. As to the kind of experiment: Effect on TERC mRNA expression in human COLO 205 cells measured after 72 hrs by qRT-PCR analysis. It is filed as functional, cell-based.
Test [17] has as its system COLO 205. The experiment in a line: Induction of apoptosis in human COLO 205 cells assessed as viable cells incubated for 44 days by Annexin V/FITC and PI staining based flow cytometry analysis (reference value: 94.05 %). The test is classed as functional. The following applies: time 44 day.
The test system of test [18] is COLO 205. The experiment in a line: Antitumor activity against human COLO 205 cells xenografted in BALB/c nude mouse assessed as tumor growth inhibition at 50 mg/kg, sc administered as single dose measured after 3 days relative to control. The test is classed as functional. The following applies: COLO 205, sc, 72 h, time 3 day, read-out: TGI.
In another test the test system is COLO. As to the kind of experiment: In vivo inhibition of telomerase in BALB/c mouse xenografted with human COLO 205 cells assessed as reduction in telomere length at 50 mg/kg, sc. It is filed as functional, organism-based.

Each structure is given as a SMILES string. Active and inactive are the calls of the source. The rule behind the calls is not given here.

Turning to `Cc1cn([C@H]2C[C@@H](n3cc(COC(=O)c4ccc(S(N)(=O)=O)cc4)nn3)[C@@H](CO)O2)c(=O)[nH]c1=O`, the result in the test with COLO 205 [1] was Active. In addition, the Activity in the test on COLO 205 [2] was 37.46%; with COLO 205 [5], 552.6 mm3; in the test on COLO 205 [6] it was 0.94%; with COLO 205 [7], 181.4 mm3; in the test on COLO 205 [8], 2.48%; in the test on COLO 205 [12], 8.27%. In addition, the Activity was 6.8% in the test on COLO 205 [15] and 76.55% in the test on COLO 205 [17]. The result with COLO 205 [3] and in the test with COLO 205 [16] was inactive. Moreover, the inhibition result in test [4] was “Dose-Dependent Effect”; in test [9], 72%; in test [13], 4.5%. Also, in test [10], the IC50 came out at 5.6 µM. This compound also showed an IC90 in test [10] of 31 µM. For the same compound, the fold change (FC) in test [11] is 2.3. Also, the Ki on Carbonic anhydrase 7 amounted to 48.5 nM. Also, the inhibition in vivo at 50 mg/kg in the test on COLO 205 [14] amounted to 33%.
On to `Cc1cn([C@H]2C[C@@H](n3cc(CNC(=O)Nc4cccc(S(N)(=O)=O)c4)nn3)[C@@H](CO)O2)c(=O)[nH]c1=O`, for which the result in the test with COLO 205 [1] was Active. Also, the Activity stood at 34.74% in the test with COLO 205 [2]; 305.3 mm3 in the test with COLO 205 [5]; 1.47% with COLO 205 [6]; 2.52% in the test with COLO 205 [8]; 12.33% in the test with COLO 205 [12]; 6.23% in the test with COLO 205 [15]. The Activity in the test on COLO 205 [17] came out at 62.43%. Moreover, the outcome in the test with COLO 205 [3] and with COLO 205 [16] was inactive. Moreover, the results for the inhibition entry in test [4], in test [9] and in test [13] were “Dose-Dependent Effect”, 58% and 4.5%, respectively. Also, inhibition in [10] was half-maximal at 0.85 µM (IC50). In test [10], this compound returned an IC90 of 10.2 µM. The fold change (FC) in test [11] is 3.4. Further, the inhibition in vivo at 50 mg/kg in the test with COLO 205 [18] turned out to be 32.1%. At Carbonic anhydrase 7, this compound returned an inhibition constant Ki of 9.4 nM. Further, in the test on COLO, the inhibition result was “Active”.
